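96-well plates; 48 h exposure; 5 concentrations. Endpoints by linear interpolation between flanking doses. Not reached: highest tested concentration assigned. Here, GI50 denotes the concentration required for 50% inhibition of growth.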 Calls of active or inactive are those of the source. Rule as the data show it: active = GI50 up to about 1.1 µM and inactive = higher.
Columns and labels:
Test in all cases: NCI anticancer screen, dose series, 48 h
IGROV-1 = test system: IGROV-1
RPMI-8226 = test system: RPMI-8226
HOP-92 = test system: HOP-92
MDA-N = test system: MDA-N
SF-268 = test system: SF-268
OVCAR-8 = test system: OVCAR-8
PC-3 = test system: PC-3
HCT-116 = test system: HCT-116
SK-OV-3 = test system: SK-OV-3
SNB-19 = test system: SNB-19
ACHN = test system: ACHN
NCI-H23 = test system: NCI-H23
KM12 = test system: KM12
K562 = test system: K562
SF-295 = test system: SF-295
HCT-15 = test system: HCT-15
T47D = test system: T47D
DU-145 = test system: DU-145
SF-539 = test system: SF-539
MOLT-4 = test system: MOLT-4

SMILES	GI50 (IGROV-1)	GI50 (RPMI-8226)	GI50 (HOP-92)	GI50 (MDA-N)	GI50 (SF-268)	GI50 (OVCAR-8)	GI50 (PC-3)	GI50 (HCT-116)	GI50 (SK-OV-3)	GI50 (SNB-19)	GI50 (ACHN)	GI50 (NCI-H23)	GI50 (KM12)	GI50 (K562)	GI50 (SF-295)	GI50 (HCT-15) [µM]	GI50 (T47D)	GI50 (DU-145)	GI50 (SF-539)	GI50 (MOLT-4)
CC1=NN(c2nc(N)nc(/C(C#N)=C\c3cccc([N+](=O)[O-])c3)n2)C(C)(C)C1	5.05 µM (inactive)	5.65 µM (inactive)	> 24.4 µM (inactive)	13.2 µM (inactive)	10.7 µM (inactive)	7.29 µM (inactive)	11.5 µM (inactive)	10.4 µM (inactive)	11.9 µM (inactive)	10.8 µM (inactive)	15.8 µM (inactive)	10.1 µM (inactive)	14.9 µM (inactive)	11.9 µM (inactive)	10.2 µM (inactive)	13.2	11 µM (inactive)	12.7 µM (inactive)	8.2 µM (inactive)	34.6 µM (inactive)
C[Si](C)(C)CCOCN(C(=O)C1=CCC2(CC1)OCCO2)c1ccccc1I	24.6 µM (inactive)	11.9 µM (inactive)	0.121 µM (active)	20.6 µM (inactive)	21.8 µM (inactive)	32.5 µM (inactive)	12.6 µM (inactive)	14.1 µM (inactive)	16.8 µM (inactive)	19.2 µM (inactive)	22.6 µM (inactive)	18.6 µM (inactive)	18.7 µM (inactive)	8.02 µM (inactive)	15.5 µM (inactive)	17.8	12.8 µM (inactive)	25.4 µM (inactive)	22.1 µM (inactive)	10.8 µM (inactive)
NC(=O)C(c1ccccc1)N1OC2C(=O)N(c3ccccc3)C(=O)C2C1c1c2ccccc2c(Cl)c2ccccc12 (configuration not stated)	> 100 µM (inactive)	> 100 µM (inactive)	> 100 µM (inactive)	> 100 µM (inactive)	> 100 µM (inactive)	> 100 µM (inactive)	> 100 µM (inactive)	> 100 µM (inactive)	> 100 µM (inactive)	> 100 µM (inactive)	> 100 µM (inactive)	> 100 µM (inactive)	> 100 µM (inactive)	> 100 µM (inactive)	> 100 µM (inactive)	> 100	> 100 µM (inactive)	> 100 µM (inactive)	> 100 µM (inactive)	> 100 µM (inactive)
CCOC(=O)c1c(N2CCOCC2)[nH]c(=O)c(C(c2ccc(OC)cc2)c2c(O)c(C(=O)OCC)c(N3CCOCC3)[nH]c2=O)c1O	–	> 100 µM (inactive)	> 100 µM (inactive)	> 100 µM (inactive)	> 100 µM (inactive)	> 100 µM (inactive)	> 100 µM (inactive)	> 100 µM (inactive)	> 100 µM (inactive)	> 100 µM (inactive)	> 100 µM (inactive)	> 100 µM (inactive)	> 100 µM (inactive)	> 100 µM (inactive)	> 100 µM (inactive)	> 100	> 100 µM (inactive)	> 100 µM (inactive)	> 100 µM (inactive)	> 100 µM (inactive)
CC1(C)C=C(/C=N/Nc2ccc(Br)cc2)C(C#N)=C(O)C1(C#N)C#N	81.8 µM (inactive)	38.5 µM (inactive)	22.4 µM (inactive)	42.2 µM (inactive)	40.9 µM (inactive)	52.5 µM (inactive)	21.2 µM (inactive)	32.2 µM (inactive)	57.8 µM (inactive)	> 100 µM (inactive)	33.3 µM (inactive)	46 µM (inactive)	29.9 µM (inactive)	17.7 µM (inactive)	> 100 µM (inactive)	–	40.9 µM (inactive)	66.7 µM (inactive)	55.2 µM (inactive)	29.2 µM (inactive)
O=CN(CCN1CCCC1)C1CCc2cc(Cl)c(Cl)cc2C1 (configuration not stated)	22.1 µM (inactive)	20.6 µM (inactive)	33.2 µM (inactive)	10 µM (inactive)	18.5 µM (inactive)	20.6 µM (inactive)	11.4 µM (inactive)	10.6 µM (inactive)	0.714 µM (active)	0.851 µM (active)	–	17.4 µM (inactive)	4.5 µM (inactive)	20.9 µM (inactive)	0.166 µM (active)	15.8	11.1 µM (inactive)	34.7 µM (inactive)	30.5 µM (inactive)	24.4 µM (inactive)
CC(C)(/C=N/O)/[N+]([O-])=C/c1ccccc1	> 100 µM (inactive)	> 100 µM (inactive)	> 100 µM (inactive)	> 100 µM (inactive)	> 100 µM (inactive)	> 100 µM (inactive)	> 100 µM (inactive)	> 100 µM (inactive)	> 100 µM (inactive)	> 100 µM (inactive)	> 100 µM (inactive)	> 100 µM (inactive)	> 100 µM (inactive)	–	> 100 µM (inactive)	> 100	> 100 µM (inactive)	> 100 µM (inactive)	> 100 µM (inactive)	> 100 µM (inactive)
N#C/C(C(=O)Nc1ccccc1)=C(/N)N1CCOCC1	> 100 µM (inactive)	> 100 µM (inactive)	> 100 µM (inactive)	> 100 µM (inactive)	–	> 100 µM (inactive)	> 100 µM (inactive)	> 100 µM (inactive)	> 100 µM (inactive)	> 100 µM (inactive)	> 100 µM (inactive)	> 100 µM (inactive)	> 100 µM (inactive)	> 100 µM (inactive)	> 100 µM (inactive)	> 100	> 100 µM (inactive)	> 100 µM (inactive)	> 100 µM (inactive)	> 100 µM (inactive)
Cc1cccc(-c2cccc(COCc3cccc(-c4cccc(CO)n4)n3)n2)n1	13 µM (inactive)	33.3 µM (inactive)	47.2 µM (inactive)	> 50 µM (inactive)	> 50 µM (inactive)	16.2 µM (inactive)	18.5 µM (inactive)	> 50 µM (inactive)	> 50 µM (inactive)	> 50 µM (inactive)	> 50 µM (inactive)	–	> 50 µM (inactive)	> 50 µM (inactive)	> 5 µM (inactive)	35.2	31.2 µM (inactive)	> 50 µM (inactive)	> 50 µM (inactive)	4.41 µM (inactive)
Nc1ccccc1C(=O)CC1OC(=O)c2ccccc21 (configuration not stated)	> 100 µM (inactive)	38.1 µM (inactive)	> 100 µM (inactive)	78.7 µM (inactive)	69.3 µM (inactive)	51.5 µM (inactive)	41.7 µM (inactive)	51.6 µM (inactive)	> 100 µM (inactive)	42.1 µM (inactive)	> 100 µM (inactive)	–	33.4 µM (inactive)	> 100 µM (inactive)	> 100 µM (inactive)	86.5	81.8 µM (inactive)	51.4 µM (inactive)	36 µM (inactive)	> 100 µM (inactive)
C=CCC(C(=O)Nc1cccc2nc[nH]c12)C(=O)OCC (configuration not stated)	> 100 µM (inactive)	> 100 µM (inactive)	> 100 µM (inactive)	> 100 µM (inactive)	> 100 µM (inactive)	> 100 µM (inactive)	> 100 µM (inactive)	> 100 µM (inactive)	> 100 µM (inactive)	> 100 µM (inactive)	> 100 µM (inactive)	–	> 100 µM (inactive)	> 100 µM (inactive)	> 100 µM (inactive)	> 100	> 100 µM (inactive)	> 100 µM (inactive)	> 100 µM (inactive)	> 100 µM (inactive)

From ChEMBL document CHEMBL1201862, “PubChem BioAssay data set” (2004)
